Measured values from patent publication US12622953B2, “Vaccines targeting neoepitopes” (Evaxion Biotech A/S, priority 2019, dated 2026).
“Also recorded” adds a separate entry of the source.

Tested on: neo-peptide specific CD8+ T cells
Test: MHC I multimer staining of whole blood after i.p. immunization
Type: in vivo, BALB/c mice
Settings: endpoint day 28, 2.0 μg C22 i.p.
Experimental: 6-8 weeks old BALB/c JrJ femal mice were acquired from Janvier Labs. The mice were acclimated for one week before initiation of the experiment. The mice had ad libitum access to water and standard chow pellets. The experiment was conducted under license 2017-15-0201-01338 from the Danish Animal Experimentation Inspectorate in accordance with the Danish Animal Experimentation Act, which is stricter and therefore fully compliant with the European directive (2010/63/EU). The mice were ear tagged to allow for identification of individuals.
To avoid “cage effects” all treatment groups were represented in each cage. Mice in groups 1, 2, 3 and 4 (the cluster immunization groups) were intraperitoneally (i.p.) immunized at day 0, 1, 2, 3, 7, 14 and 21 with 0.4, 2.0, 10.0 and 50.0 μg of C22 admixed with CAF09b, respectively. Corresponding groups (5, 6, 7 and 8) were vaccinated according to a traditional prime-boost strategy on days 0, 14 and 21 with solutions identical to what group 1, 2, 3 and 4 received. Dosing volumes for the mice were 200 μl for all vaccines.
The C22 peptide was synthesised by GenScript and aliquoted into 0.8 mg portions as a lyophilized product. The peptide was solubilized in DMSO to a concentration of 10 mg/ml by adding 80 μl DMSO to each aliquot. The peptide stock was then diluted 10 times in sterile water (80 μl peptide stock+720 μl sterile water). […]

## QIETQQRKFKASRASILSEMKMLKEKR (listed as Mus musculus) [Peptide C22]
Cluster primed
  MHC:C22 positive CD8+ T cells in blood: low-frequency MHC:C22 positive CD8+ T cells were detected; also recorded: small increase
Standard prime-boost schedule
  neo-peptide specific CD8+ cells in blood: hardly any
